{"source": "patent US9603827B2", "about": "“Method for preventing and/or treating hairy wart disease” (Mitsubishi-Kagaku Foods Corporation, priority 2014, dated 2017)", "type_in_all_cases": "in vivo", "key": {"Eubacteriaceae": {"test_system": "Eubacteriaceae", "assay": "16S rRNA clone analysis of digital dermatitis lesion before and after treatment", "description": "(§1) Samples were collected from two cows afflicted with digital dermatitis. First, a digital dermatitis lesion was collected from the affected area by biopsy prior to treatment. After collecting the lesion, a powdered composition containing allyl isothiocyanate (trade name: “Wasaouro Powder”, Mitsubishi-Kagaku Foods Corp.) was applied to the affected area. After confirming improvement of clinical symptoms seven days later, a sample was again collected by biopsy. The stage of digital dermatitis at the time of sampling was assessed macroscopically. In order to investigate the predominant microbial species in the lesion before and after treatment, DNA was extracted from four specimens of digital dermatitis lesion materials of the two cows before and after treatment, low cycle number PCR (25 cycles or less) was carried out using universal primers to 16S rRNA gene, and the amplified gene fragment was cloned in an Escherichia coli vector. 192 clones were randomly harvested for each specimen to determine the base sequence of the amplified 16S rRNA gene. Among these, a homology analysis was performed by a BLAST search using clones from which data was obtained for base sequences in excess of 1450 bp, followed by determination of microbial species."}, "Acholeplasma vituli": {"test_system": "Acholeplasma vituli", "assay": "16S rRNA clone analysis of digital dermatitis lesion before and after treatment", "conditions": "Table 3 cow", "description": "as §1"}, "Clostridiaceae": {"test_system": "Clostridiaceae", "assay": "16S rRNA clone analysis of digital dermatitis lesion before and after treatment", "conditions": "Table 3 cow", "description": "as §1"}, "Psychrobacter": {"test_system": "Psychrobacter", "assay": "16S rRNA clone analysis of digital dermatitis lesion before and after treatment", "conditions": "Table 3 cow", "description": "as §1"}, "Anaerovorax odorimutans": {"test_system": "Anaerovorax odorimutans", "assay": "16S rRNA clone analysis of digital dermatitis lesion before and after treatment", "conditions": "Table 3 cow", "description": "as §1"}, "Treponema [1]": {"test_system": "Treponema", "assay": "16S rRNA clone analysis of digital dermatitis lesion before and after treatment", "description": "as §1"}, "[2]": {"test_system": "dairy cows afflicted with digital dermatitis", "assay": "Effect of patch on digital dermatitis of dairy cows (Example 1)", "conditions": "patch on affected area, assessed two days later", "description": "3 g of a powdered composition of allyl isothiocyanate (trade name: “Wasaouro Powder”, Mitsubishi-Kagaku Foods Corp.) were placed on a piece of absorbent cotton and pressed against the affected area of dairy cows afflicted with digital dermatitis followed by wrapping with an elastic bandage to administer the allyl isothiocyanate to the affected area in the form of a patch and assessing the effect two days later. In addition, the effect of respectively administering sodium alginate and slaked lime using the same method was also assessed two days later."}, "Treponema [3]": {"test_system": "Treponema", "assay": "Microbial score of affected area with and without hoof trimming (Example 4)", "conditions": "observed after 2, 4 and 6 days", "description": "(§2) Allyl isothiocyanate (trade name: “Wasaouro Powder”, Mitsubishi-Kagaku Foods Corp.) was applied to the affected areas of dairy cows afflicted with digital dermatitis, and microbial scores and changes in pain at the lesions were observed after 2, 4 and 6 days.\n(§3) Comparisons were made under the following conditions A to D in order to confirm differences in effects attributable to the presence or absence of hoof trimming.\n(§4) A: Allyl isothiocyanate applied to affected area after hoof trimming\n(§5) B: Allyl isothiocyanate applied to affected area without performing hoof trimming\n(§6) C: Allyl isothiocyanate applied after hoof trimming and cleaning the affected area with Oxydol disinfectant\n(§7) D: Affected area cleaned with Oxydol disinfectant after hoof trimming (without applying allyl isothiocyanate)\nMicrobial scores of the affected areas were obtained by scoring the number of microorganisms from a stamped specimen of the heel bulb in the manner indicated below.\n3: Treponema covered the entire field of view\n2: Large number of Treponema confirmed in the field of view\n1: Treponema only occasionally confirmed\n0: Treponema unable to be confirmed"}, "[4]": {"test_system": "dairy cows afflicted with digital dermatitis", "assay": "Pain at affected area by pressure gauge, with and without hoof trimming (Example 4)", "conditions": "applied after hoof trimming; observed after 2, 4 and 6 days", "description": "as §2, §3, §4, §5, §6, §7\nChanges in pain were evaluated based on the level of pressure at which pain was felt by tightly squeezing the affected area with a pressure gauge. Larger values indicate lower levels of pain."}, "[5]": {"test_system": "dairy cows afflicted with hairy hoof wart attack", "assay": "Effect of patch on hairy hoof wart attack of dairy cows (Example 2)", "conditions": "assessed one week later", "description": "3 g of a powdered composition of allyl isothiocyanate (trade name: “Wasaouro Powder”, Mitsubishi-Kagaku Foods Corp.) were placed on a piece of absorbent cotton and pressed against the affected area of dairy cows (5) afflicted with hairy hoof wart attack followed by wrapping with an elastic bandage to administer the allyl isothiocyanate to the affected area in the form of a patch and assessing the effect one week later. […] Hairy hoof wart attack is a hoof and leg disease having lesions that are more serious and cover a broader area in comparison with digital dermatitis, and when considering that an effective preventive and/or treatment method has currently yet to be found, this effect of allyl isothiocyanate can be said to be groundbreaking."}, "[6]": {"conditions": "Table 2 cow, after treatment (n = 171), seven days"}, "[7]": {"conditions": "Table 2 cow, before treatment (n = 181)"}, "[8]": {"conditions": "Table 3 cow, after treatment (n = 178), seven days"}, "[9]": {"conditions": "Table 3 cow, before treatment (n = 180)"}, "[10]": {"conditions": "after treatment (n = 178), seven days"}, "[11]": {"conditions": "3 g powder patch, five dairy cows"}}, "data": [{"compound": "C=CCN=C=S", "note": "[Allyl isothiocyanate, allyl isothiocyanate]", "values": [{"measurement": "percentage of clones detected: Eubacteriaceae", "setting": "Eubacteriaceae; [6]", "result": 0.6, "unit": "%"}, {"measurement": "percentage of clones detected: Eubacteriaceae", "setting": "Eubacteriaceae; [7]", "result": 5.5, "unit": "%"}, {"measurement": "percentage of clones detected: Eubacteriaceae", "setting": "Eubacteriaceae; [8]", "result": 0.6, "unit": "%"}, {"measurement": "percentage of clones detected: Eubacteriaceae", "setting": "Eubacteriaceae; [9]", "result": 10.6, "unit": "%"}, {"measurement": "percentage of clones detected: Acholeplasma vituli", "setting": "Acholeplasma vituli; [10]", "result": 0, "unit": "%"}, {"measurement": "percentage of clones detected: Acholeplasma vituli", "setting": "Acholeplasma vituli; before treatment (n = 180)", "result": 3.9, "unit": "%"}, {"measurement": "percentage of clones detected: Clostridiaceae", "setting": "Clostridiaceae; [10]", "result": 5.6, "unit": "%"}, {"measurement": "percentage of clones detected: Clostridiaceae", "setting": "Clostridiaceae; before treatment (n = 180)", "result": 26.7, "unit": "%"}, {"measurement": "percentage of clones detected: Psychrobacter", "setting": "Psychrobacter; [10]", "result": 0, "unit": "%"}, {"measurement": "percentage of clones detected: Psychrobacter", "setting": "Psychrobacter; before treatment (n = 180)", "result": 2.2, "unit": "%"}, {"measurement": "percentage of clones detected: Anaerovorax odorimutans", "setting": "Anaerovorax odorimutans; [10]", "result": 0, "unit": "%"}, {"measurement": "percentage of clones detected: Anaerovorax odorimutans", "setting": "Anaerovorax odorimutans; before treatment (n = 180)", "result": 10.0, "unit": "%"}, {"measurement": "percentage of clones detected: Treponema", "setting": "Treponema [1]; [6]", "result": 7.0, "unit": "%"}, {"measurement": "percentage of clones detected: Treponema", "setting": "Treponema [1]; [7]", "result": 79.6, "unit": "%"}, {"measurement": "percentage of clones detected: Treponema", "setting": "Treponema [1]; [8]", "result": 0, "unit": "%"}, {"measurement": "percentage of clones detected: Treponema", "setting": "Treponema [1]; [9]", "result": 37.8, "unit": "%"}, {"measurement": "Degree of effect: Effective (number of digits)", "setting": "[2]", "result": 1, "unit": "digits"}, {"measurement": "Degree of effect: Ineffective (number of digits)", "setting": "[2]", "result": 0, "unit": "digits"}, {"measurement": "Degree of effect: Slightly effective (number of digits)", "setting": "[2]", "result": 0, "unit": "digits"}, {"measurement": "Degree of effect: Very effective (number of digits)", "setting": "[2]", "result": 2, "unit": "digits"}, {"measurement": "percentage of digits for which the degree of the effect was effective or better", "setting": "[2]", "result": 100, "unit": "%"}, {"measurement": "number of microorganisms at the lesion", "setting": "Treponema [3]; administered after hoof trimming", "result": "decrease"}, {"measurement": "number of microorganisms at the lesion", "setting": "Treponema [3]; applied after cleaning the affected area with Oxydol disinfectant", "result": "decrease further"}, {"measurement": "pain", "setting": "[4]", "result": "decrease"}, {"measurement": "cows in which the affected area demonstrated improvement", "setting": "[5]; [11]", "result": "one"}, {"measurement": "cows in which the affected area healed", "setting": "[5]; [11]", "result": "two"}, {"measurement": "cows in which the affected area was unchanged", "setting": "[5]; [11]", "result": "one"}, {"measurement": "cows with effects categorized as improved or better", "setting": "[5]; of the five dairy cows", "result": "four"}]}, {"compound": "[Ca+2].[OH-].[OH-]", "note": "[Slaked lime, slaked lime, reference compound]", "values": [{"measurement": "Degree of effect: Effective (number of digits)", "setting": "[2]", "result": 2, "unit": "digits"}, {"measurement": "Degree of effect: Ineffective (number of digits)", "setting": "[2]", "result": 0, "unit": "digits"}, {"measurement": "Degree of effect: Slightly effective (number of digits)", "setting": "[2]", "result": 5, "unit": "digits"}, {"measurement": "Degree of effect: Very effective (number of digits)", "setting": "[2]", "result": 0, "unit": "digits"}, {"measurement": "percentage of digits for which the degree of the effect was effective or better", "setting": "[2]", "result": 29, "unit": "%"}]}]}
